molecular target: T1, human GLP-1R receptor (Homo sapiens, UniProt P43220); test: GLP-1R low expression cell assay (cAMP TR-FRET, CHO-K1_hGLP-1Rlow_clone10); format: cell-based; settings: CHO-K1_hGLP-1Rlow_clone10 cells, percent activation relative to control GLP-1 peptide
T1 construct: expressed in transfected cells
Description: Stable cell lines expressing high and low GLP-1R surface expression are generated in CHO-K1 cells transfected (Fugene 6) with a puromycin selectable DNA plasmid encoding human GLP-1R receptor (accession number: NM_002062.5) under control of an EF1A promoter. Transfected cells are seeded into 24-well plates (9,000 cells/well) containing complete medium and incubated in a humidified incubator at 37° C. with 5% carbon dioxide. After overnight incubation, medium is replaced with complete medium supplemented with puromycin (6 μg/mL) and refreshed every 2-3 days to select for stably transfected cells. Individual pools of selected cells are expanded prior to analysis for responsiveness to GLP-1 control peptide using a TR-FRET assay to detect cAMP (LANCE Ultra cAMP Assay, Perkin Elmer). Briefly, cells are collected in Versene solution, plated in 384-well plates (1,000 cells/well) and combined with serially diluted GLP-1R control peptide (10 nL) using an acoustic dispenser (ECHO). Plates are incubated for 30 minutes at 25° C. prior to the addition of EU-cAMP tracer (5 μL) and Ulight-anti-cAMP (5 μL) reagents to each well, followed by 15 minutes incubation at 25° C. TR-FRET signal is detected using an EnVision Multimode Plate Reader (excitation=320 nm; emission=615 and 655 nm). Dose-response curves are used to generate EC50 values as a measure of responsiveness to the GLP-1R control peptide. Selected cell lines are monitored for responsiveness over multiple passages to ensure stability. […] Briefly, GLP-1R expression is analyzed by flow cytometry using a fluorescein-labeled Exendin-4 peptide fluorescent probe (FLEX). Cells are harvested in Versene solution and washed 3-times with PBS+0.5% BSA before incubation with FLEX reagent (10 μM) for 2 hours at room temperature. After incubation, cells are washed 3-times in PBS+0.5% BSA before final resuspension in PBS prior to analysis by flow cytometry to measure FLEX mean fluorescence intensity (MFI) as a measure of GLP-1R expression on the cell surface.
For compound testing in the CHO-K1_hGLP-1Rlow_clone10 cell lines, cells are seeded in 384-well plates (1,000 cells/well). Test compounds are serially diluted in DMSO (10-point, 3-fold dilution), added to wells using an ECHO dispenser (10 nL/well) and plates are centrifuged for 1 min and agitated for 2 min at room temperature prior to 30-minute incubation at 25° C. After incubation, Eu-cAMP (5 μL) and Ulight-anti-cAMP (5 μL) reagents are added to each well, followed by centrifugation for 1 minute, agitation for 2 minutes at room temperature, and final incubation of the plates at 25° C. for 15 minutes. Plates are read using an EnVision microplate reader (excitation=320 nm; emission=615 and 655 nm). Dose-response curves are generated from duplicate wells based on percent activation calculated relative to a control GLP-1 peptide agonist that was run in parallel. EC50 values are determined by fitting percent activation as a function of compound concentration using the Hill equation (XLfit).
Stable cell lines expressing high and low GLP-1R surface expression were generated in CHO-K1 cells transfected (Fugene 6) with a puromycin selectable DNA plasmid encoding human GLP-1R receptor (accession number: NM_002062.5) under control of an EF1A promoter. Transfected cells were seeded into 24-well plates (9,000 cells/well) containing complete medium and incubated in a humidified incubator at 37° C. with 5% carbon dioxide. After overnight incubation, medium was replaced with complete medium supplemented with puromycin (6 μg/mL) and refreshed every 2-3 days to select for stably transfected cells. Individual pools of selected cells were expanded prior to analysis for responsiveness to GLP-1 control peptide using a TR-FRET assay to detect cAMP (LANCE Ultra cAMP Assay, Perkin Elmer).

T1 sequence (P43220 24-463): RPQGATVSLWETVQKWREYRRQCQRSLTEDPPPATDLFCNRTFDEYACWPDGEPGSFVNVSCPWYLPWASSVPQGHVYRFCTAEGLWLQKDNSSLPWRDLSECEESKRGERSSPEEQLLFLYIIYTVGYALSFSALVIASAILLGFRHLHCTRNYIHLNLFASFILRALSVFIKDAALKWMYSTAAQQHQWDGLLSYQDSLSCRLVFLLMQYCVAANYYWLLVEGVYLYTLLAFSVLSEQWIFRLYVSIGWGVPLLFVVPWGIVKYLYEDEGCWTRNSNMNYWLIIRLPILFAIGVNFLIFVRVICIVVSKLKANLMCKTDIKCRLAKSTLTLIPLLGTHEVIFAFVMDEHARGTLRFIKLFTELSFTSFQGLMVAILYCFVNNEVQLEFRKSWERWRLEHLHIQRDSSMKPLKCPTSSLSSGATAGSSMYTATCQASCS

Structure (SMILES) | EC50 [µM]
CCn1nncc1Cn1c(CN2CCN(c3cccc(OCc4ccc(C#N)cc4F)n3)[C@@H]3C[C@@H]32)nc2ccc(C(=O)O)cc21 [Compound 44, 2-((5-(6-((4-Cyano-2-fluorobenzyl)oxy)pyridin-2-yl)-2,5-diazabicyclo[4.1.0]heptan-2-yl)methyl)-1-((1-ethyl-1H-1,2,3-triazol-5-yl)methyl)-1H-benzo[d]imidazole-6-carboxylic Acid] | > 0.1
CC1(c2ccc(C#N)cc2F)Oc2cccc(N3CCN(Cc4nc5ccc(C(=O)O)cc5n4C[C@@H]4CCO4)C4CC43)c2O1 (stereo partly drawn) [Compound 41, 2-((5-(2-(4-cyano-2-fluorophenyl)-2-methylbenzo[d][1,3]dioxol-4-yl)-2,5-diazabicyclo[4.1.0]heptan-2-yl)methyl)-1-(((S)-oxetan-2-yl)methyl)-1H-benzo[d]imidazole-6-carboxylic Acid] | < 0.005
CO[C@H](C)Cn1c(CN2CCC(c3cccc(OCc4ccc(C#N)cc4F)n3)C3CC32)nc2ccc(C(=O)O)cc21 (stereo partly drawn) [Compound 21, 2-((5-(6-((4-Cyano-2-fluorobenzyl)oxy)pyridin-2-yl)-2-azabicyclo[4.1.0]heptan-2-yl)methyl)-1-((R)-2-methoxypropyl)-1H-benzo[d]imidazole-6-carboxylic Acid] | 0.005 to 0.05
CO[C@H](C)Cn1c(CN2CCN(c3cccc4c3OC(C)(c3ccc(C#N)cc3F)O4)C3CC32)nc2ccc(C(=O)O)cc21 (stereo partly drawn) [Compound 39, 2-((5-(2-(4-Cyano-2-fluorophenyl)-2-methylbenzo[d][1,3]dioxol-4-yl)-2,5-diazabicyclo[4.1.0]heptan-2-yl)methyl)-1-((R)-2-methoxypropyl)-1H-benzo[d]imidazole-6-carboxylic Acid] | 0.05 to 0.1
N#Cc1ccc(COc2cccc(C3CCN(Cc4nc5ccc(C(=O)O)cc5n4Cc4cncs4)C4CC34)n2)c(F)c1 (centres unmarked) [Compound 16, 2-((5-(6-((4-Cyano-2-fluorobenzyl)oxy)pyridin-2-yl)-2-azabicyclo[4.1.0]heptan-2-yl)methyl)-1-(thiazol-5-ylmethyl)-1H-benzo[d]imidazole-6-carboxylic Acid] | 0.005 to 0.05
N#Cc1ccc(COc2cccc(N3CCC(Cc4nc5ccc(C(=O)O)cc5n4Cc4cncs4)C4CC43)n2)c(F)c1 (centres unmarked) [Compound 46, 2-((2-(6-((4-Cyano-2-fluorobenzyl)oxy)pyridin-2-yl)-2-azabicyclo[4.1.0]heptan-5-yl)methyl)-1-(thiazol-5-ylmethyl)-1H-benzo[d]imidazole-6-carboxylic Acid] | 0.05 to 0.1

The next lines start with the values.

EC50 [µM] | Structure (SMILES)
> 0.1 | N#Cc1ccc(COc2cccc(N3CCN(Cc4nc5ccc(-c6nnc(C(F)(F)F)[nH]6)cc5n4Cc4cncs4)[C@@H]4C[C@@H]43)n2)c(F)c1 (racemic) [Compound 12, 3-Fluoro-4-(((6-(5-((1-(thiazol-5-ylmethyl)-6-(5-(trifluoromethyl)-4H-1,2,4-triazol-3-yl)-1H-benzo[d]imidazol-2-yl)methyl)-2,5-diazabicyclo[4.1.0]heptan-2-yl)pyridin-2-yl)oxy)methyl)benzonitrile]
> 0.1 | C[C@@]1(c2ccc(C#N)cc2F)Oc2cccc(N3CCN(Cc4nc5ccc(C(=O)O)cc5n4Cc4cncs4)[C@H]4C[C@H]43)c2O1 [Compound 35, 2-((5-(2-(4-Cyano-2-fluorophenyl)-2-methylbenzo[d][1,3]dioxol-4-yl)-2,5-diazabicyclo[4.1.0]heptan-2-yl)methyl)-1-(thiazol-5-ylmethyl)-1H-benzo[d]imidazole-6-carboxylic Acid]
> 0.1 | CC1(c2ccc(C#N)cc2F)Oc2cccc(N3CCN(Cc4nc5ccc(-c6nnc(C(F)(F)F)[nH]6)cc5n4Cc4cncs4)C4CC43)c2O1 (centres unmarked) [Compound 13, 3-Fluoro-4-(2-methyl-4-(5-((1-(thiazol-5-ylmethyl)-6-(5-(trifluoromethyl)-4H-1,2,4-triazol-3-yl)-1H-benzo[d]imidazol-2-yl)methyl)-2,5-diazabicyclo[4.1.0]heptan-2-yl)benzo[d][1,3]dioxol-2-yl)benzonitrile]

test system: not listed separately; test: Metabolic stability in hepatocytes; format: in vitro ADME; settings: cryopreserved human hepatocytes (suspension), 1×10^6 cells/mL, 0-240 min, read-out: hHep t1/2
Description: Test compounds are incubated in human hepatocytes and stability is assessed from the substrate […] approach. Test compounds are dissolved in dimethyl sulfoxide (DMSO) to create a 10 mM Stock, and then further diluted to create a 1000× Working Stock of 1 mM with DMSO in 96-well plates for test compounds and the positive control (midazolam). Vials containing cryopreserved hepatocytes are removed from the liquid nitrogen tank and immediately immersed in a 37° C. water bath. The vials are shaken gently until the contents had thawed and were then immediately emptied into 48 mL of pre-warmed HT Medium in a 50 mL conical tube. Cells remaining in the vial are resuspended with 1.0 mL of pre-warmed HT Medium and added to the conical tube. The tube is capped and then gently inverted several times to resuspend the hepatocytes. The cell suspension is centrifuged at 50×g at room temperature for 5 minutes and the supernatant discarded. The cell pellet is loosened by gently swirling the centrifuge tube and is re-suspended in 4 mL of warm Dulbecco's Modified Eagle medium (DMEM). Cell density is determined by a cell counter by Nexcelom, and DMEM medium is added to obtain a target density of 1×10^6 cells/mL. The assay is carried out in 96-well microtiter plates. Test Compounds are incubated at 1 μM with 1×10^6 cells/mL hepatocytes in DMEM for 0, 30, 60, 120 and 240 minutes. The incubation is carried out with gentle shaking at 37° C. under a humid atmosphere of 95% air/5% CO2. The volume of the incubation mixture is 37 μL with a final 0.1% DMSO. At each of the time points, the incubation is stopped by adding 150 μL quenching solution (100% acetonitrile, 0.1% formic acid containing bucetin as an internal standard for positive ESI mode). Subsequently, the mixtures are vortexed for 20 min and centrifuged at 4,000 RPM at 10° C. The supernatant (80 μL) is transferred to a clean 96-well plate and analyzed by LC-MS/MS. Midazolam at 1 μM with a final 0.1% DMSO is included as a positive control to verify assay performance. The percent parent remaining, intrinsic and predicted hepatic clearance and t1/2 are calculated. All samples are analyzed by LC-MS/MS using an AB Sciex API 4000 instrument, coupled to a Shimadzu LC-20AD LC Pump system. Separation is achieved using a Waters Atlantis T3 dC18 reverse phase HPLC column (20 mm×2.1 mm) at a flow rate of 0.5 mL/min. The mobile phase consisted of 0.1% formic acid in water (solvent A) and 0.1% formic acid in 100% acetonitrile (solvent B). Elution conditions are detailed below.
The ion optics of each test compound are optimized for their declustering potential (DP), […] (CE), collision-cell exit potential (CXP) and used in a selected ion monitoring experiment in the positive ion mode. The peak area ratio of each test compound to internal standard is then evaluated for stability. The extent of metabolism is calculated based on the disappearance of the test compound, compared to its initial concentration. The initial rates of clearance of the test compound are calculated using the linear regression plot of semi-log % remaining of the compound versus time. The elimination rate constant (k) of the linear regression plot is then used to determine t1/2 and the intrinsic clearance (CLint) using the following formula, where Chepatocyte (million cells/mL) is the cell density of the incubation: k=−slope t1/2=0.693/k CLint=k/Chepatocyte
Test compounds were incubated in human hepatocytes and stability was assessed from the substrate […] approach. Test compounds were dissolved in dimethyl sulfoxide (DMSO) to create a 10 mM Stock, and then further diluted to create a 1000× Working Stock of 1 mM with DMSO in 96-well plates for test compounds and the positive control (midazolam). Vials containing cryopreserved hepatocytes were removed from the liquid nitrogen tank and immediately immersed in a 37° C. water bath. […]

half-life at 1 μM [h] | Structure (SMILES)
2.6 | N#Cc1ccc(COc2cccc(C3CCN(Cc4nc5ccc(C(=O)O)cc5n4C[C@@H]4CCO4)CC3)n2)c(F)c1 [Reference Compound B, reference compound]

same assay, conditions: cryopreserved human hepatocytes (suspension), 1×10^6 cells/mL, intrinsic clearance, read-out: hHep CLint

CLint scaled at 1 μM [L/h/kg] | Structure (SMILES)
0.93 | N#Cc1ccc(COc2cccc(C3CCN(Cc4nc5ccc(C(=O)O)cc5n4C[C@@H]4CCO4)CC3)n2)c(F)c1 [Reference Compound B, reference compound]

— US12410163B2, “Compounds as GLP-IR agonists” (Terns Pharmaceuticals, Inc., priority 2022, dated 2025)
